This note sets out measurements from US20100184815A1 (priority 2008, published 2010).

Read-outs that look alike come from different tables or passages of the source.

The target in one series is T1, Gal-4 hPPARα (Homo sapiens, UniProt Q07869).
T1 construct: Plasmids pGal4-hPPARα, pGal4-hPPARγ, pGal4-hPPARδ and pG5-TK-pGL3 were constructed as previously described by Staels, Bart, et al., Nature 1998 Jun; 25
T1 sequence (Q07869 200-468 limits assumed): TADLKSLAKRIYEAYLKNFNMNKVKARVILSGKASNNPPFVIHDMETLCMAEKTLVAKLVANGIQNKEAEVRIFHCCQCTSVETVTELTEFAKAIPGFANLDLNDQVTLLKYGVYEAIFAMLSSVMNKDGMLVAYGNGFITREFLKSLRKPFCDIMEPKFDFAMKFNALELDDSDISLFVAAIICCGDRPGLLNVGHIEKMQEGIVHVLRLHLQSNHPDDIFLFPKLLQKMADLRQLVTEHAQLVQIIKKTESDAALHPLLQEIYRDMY
The series can be described thus: Gal4-hPPARα transient transfection reporter assay in Cos cells. The class given is cell-based. Particulars: luciferase reporter, 24 hours with compound, scale 1-5, read-out: Gal-4 hPPAR α EC50 (scaled number). The procedure, abridged: (§1)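 Cos cells transiently co-transfected with Gal4-hPPAR expression plasmid, pG5-TK-pGL3 luciferase reporter and β-galactosidase control, then treated 24 h with increasing compound concentrations in DMEM containing 0.2% FCS. Luciferase normalised to β-galactosidase; EC50 from curve fit, at least three experiments.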
(A reporter such as luciferase makes a cellular process visible.)

A further series concerns the target T2, Gal-4 hPPARβ/δ (Homo sapiens, UniProt Q03181).
T2 construct: Plasmids pGal4-hPPARα, pGal4-hPPARγ, pGal4-hPPARδ and pG5-TK-pGL3 were constructed as previously described by Staels, Bart, et al., Nature 1998 Jun; 25
T2 sequence (Q03181 171-441 limits assumed): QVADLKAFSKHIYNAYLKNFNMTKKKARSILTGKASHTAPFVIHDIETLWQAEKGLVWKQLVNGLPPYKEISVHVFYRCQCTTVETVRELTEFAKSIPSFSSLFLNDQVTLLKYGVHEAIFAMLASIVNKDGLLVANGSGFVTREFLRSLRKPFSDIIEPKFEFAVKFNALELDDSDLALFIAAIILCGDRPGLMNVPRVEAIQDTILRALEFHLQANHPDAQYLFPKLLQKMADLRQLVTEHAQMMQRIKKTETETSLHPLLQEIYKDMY
Put plainly: Gal4-hPPARδ transient transfection reporter assay in Cos cells. As to conditions: luciferase reporter, 24 hours with compound, scale 1-5, read-out: Gal-4 hPPAR β/δ EC50 (scaled number). It is filed as cell-based. The procedure, abridged: as §1

For the next series, the target named is T3, Full Length hPPARα (Homo sapiens, UniProt Q07869).
T3 construct: Full Length; expressed in transfected cells; host or cells: Cos cells
T3 sequence (Q07869 1-468): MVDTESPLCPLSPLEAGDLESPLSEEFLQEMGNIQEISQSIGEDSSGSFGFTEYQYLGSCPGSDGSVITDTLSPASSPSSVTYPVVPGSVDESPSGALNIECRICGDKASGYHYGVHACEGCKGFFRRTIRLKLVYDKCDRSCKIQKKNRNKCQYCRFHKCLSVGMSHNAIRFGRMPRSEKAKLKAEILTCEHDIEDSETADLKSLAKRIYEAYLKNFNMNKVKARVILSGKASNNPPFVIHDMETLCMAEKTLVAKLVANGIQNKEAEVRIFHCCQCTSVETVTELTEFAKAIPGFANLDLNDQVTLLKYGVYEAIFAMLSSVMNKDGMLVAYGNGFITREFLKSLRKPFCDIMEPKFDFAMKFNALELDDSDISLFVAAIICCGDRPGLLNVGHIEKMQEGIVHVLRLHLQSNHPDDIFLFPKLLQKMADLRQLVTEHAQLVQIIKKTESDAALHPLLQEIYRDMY
Put plainly: Full length hPPARα transfection assay. The class given is cell-based. As to conditions: full length receptor; read-out: Full Length hPPAR α EC50 (scaled number). The method, then:
Transient transfection assays. Cos cells were seeded in 60-mm dishes at a density of 5.5×10^5 cells/dish in Dulbecco's modified Eagle's medium (DMEM) supplemented with 10% fetal calf serum (FCS) and incubated at 37° C. for 24 hours before transfection. Cells were transfected in Opti-MEM (Gibco; Invitrogen, Carlsbad, Calif.) without FCS for 3 hours at 37° C., using polyethylenimine, with reporter and expression plasmids. The plasmid pBluescript (Stratagene, La Jolla, Calif.) was used as carrier DNA to set the final amount of DNA to 5.5 μg/dish. The pCMV-b-galactosidase expression plasmid was cotransfected as a control for transfection efficiency. Transfection was stopped by the addition of DMEM supplemented with 10% FCS, and cells were then incubated at 37° C. After 16 hours, cells were trypsinized and seeded in 96-well plates at the density of 2×10^4 cells/well and incubated for 6 hours in 10% FCS-containing DMEM. Cells were then incubated for 24 hours in DMEM containing 0.2% FCS and increasing concentrations of the compound tested or vehicle (DMSO). At the end of the experiment, cells were washed once with ice-cold PBS, lysed and the luciferase and b-galactosidase assays were performed in a luminometer and spectrophotomer. Transfection efficiencies were normalized with the b-galactosidase activity assay. Half-maximal effective concentration (EC50) was estimated using Prism software (GraphPad). All transfection experiments were performed at least three times.
In the following tables, proprietary compound EC50 values for hPPAR α, β, δ and γ are shown. The EC50 value is the concentration of a drug that induces a response halfway between the baseline and maximum, and is commonly used as a measure of drug potency. EC50 values are reported on a scale of 1 through 5, wherein the value scale is defined for each receptor as follows: […]

Another series concerns the target T4, Gal-4 hPPARγ (Homo sapiens, UniProt P37231).
T4 construct: Plasmids pGal4-hPPARα, pGal4-hPPARγ, pGal4-hPPARδ and pG5-TK-pGL3 were constructed as previously described by Staels, Bart, et al., Nature 1998 Jun; 25
T4 sequence (P37231 238-505 limits assumed): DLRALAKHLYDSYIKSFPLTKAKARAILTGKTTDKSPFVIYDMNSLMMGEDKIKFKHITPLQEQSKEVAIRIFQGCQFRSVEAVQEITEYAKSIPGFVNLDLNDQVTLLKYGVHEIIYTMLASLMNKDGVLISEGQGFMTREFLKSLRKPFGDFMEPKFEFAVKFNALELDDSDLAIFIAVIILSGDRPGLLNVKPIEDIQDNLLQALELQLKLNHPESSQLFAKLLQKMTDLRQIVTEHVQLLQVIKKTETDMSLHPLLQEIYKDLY
The series can be described thus: Gal4-hPPARγ transient transfection reporter assay in Cos cells. The class given is cell-based. As to conditions: luciferase reporter, 24 hours with compound, scale 1-5, read-out: Gal-4 hPPAR γ EC50 (scaled number). The procedure, abridged: as §1

A further series relates to pig liver esterase. The series can be described thus: Metabolism studies using pig liver esterase. Particulars: 37° C. It is filed as in vitro ADME. The protocol: The esterase-mediated metabolism of these compounds was studied using commercially available pig liver esterase in the presence and absence of human plasma proteins. The disappearance of parent was monitored over the time course of the incubations using a LC-UV detection system.
A stock solution and working stock solution was prepared for each proprietary compound as described for the human liver microsomal incubations. Working solutions of pig liver esterase in potassium phosphate buffer ([…], pH 7.4) and pig liver esterase in human plasma protein were prepared by dissolving pig liver esterase (2.51 mg) in the phosphate buffer or plasma protein solutions, respectively.
A set of three Eppendorf microfuge tubes (1.5 mL) was appropriately labeled. To each tube was added 1.5 mL of phosphate buffer, pig liver esterase in buffer, or pig liver esterase in human plasma protein solution. These solutions were pre-incubated (37° C., 900 rpm) and the reactions were initiated by adding an aliquot (37.5 μL) of the working solution of proprietary compound to each tube. An aliquot (100 μL) from each tube was removed at time 0, 5, 30, 60, and 120 min and added to a tube containing acetonitrile (200 μL) to stop the reaction.
The samples were centrifuged at 14000 g for 15 minutes at 4° C. The supernatant was transferred to clean labeled HPLC injection vials and stored at −80° C. until analyzed. An aliquot of the supernatant (25 μL) was injected onto the LC-UV system for analysis.
Half lives of a sample of test articles is noted in the following table. Half life was determined in the presence or absence of plasma.

Series [1] in a line: Metabolism studies using human liver microsomal preparations. It is filed as in vitro ADME. Particulars: pooled human liver microsomes, with NADPH (CYP system active), 37° C. The method, then:
Compounds were incubated in pooled human liver microsomes (HLMs) in the presence or absence of an NADPH-generating system. NADPH is required for the activity of cytochrome P450 (CYP) and other oxidative enzymes present in HLMs, but not for esterase activity. An additional incubation was carried out in the absence of HLM to assess compound stability. The disappearance of parent and the appearance of the corresponding acid metabolite were monitored over the time course of the incubations using LC-MS/MS.
A stock solution (20 mM) of each proprietary compound in DMSO was prepared and store at −20° C. until needed. A working stock solution (0.2 mM) was prepared for each proprietary compound by adding an aliquot of the stock solution (10 μL) to acetonitrile (990 μL).
An aliquot of the HLM solution was removed from the −80° C. freezer and placed on ice. Tris Buffer (50 mM, pH 7.4) containing MgCl2 (hexahydrate, 5 mM) was pre-incubated in a 37° C. water bath. A set of Eppendorf microfuge tubes (1.5 mL) was appropriately labeled. To each tube was added Tris buffer with or without the NADPH generating system. An aliquot of pooled HLMs was added to all the incubations except those that were the buffer control.
Tubes were preincubated for 5 min in a shaking incubator bath (37° C., 900 rpm) and the reaction was initiated by adding an aliquot of the proprietary working solution (5 μL). The additions were timed carefully in order to coordinate the sample collections below. A small aliquot (50 μL) was removed at […] and delivered to the respective tubes containing dextrorphan (100 μL of 0.5 μg/mL solution) in dissolved in methanol or acetonitrile. The samples were centrifuged at 14000 g for 15 minutes at 4° C. The supernatant was transferred to clean labeled HPLC injection vials and stored at −80° C. until analyzed. An aliquot of the supernatant […] was added to water (75 μL), mixed and injected onto the LC-MS/MS system for analysis.
“HLM t1/2” represents the observed half life of the compound under conditions that included NADPH, i.e., the CYP system was active. Comparison to the half life of the test article under (−)NADPH conditions, the enzyme predominant ly responsible for the metabolism of the test article. […] Where roughly equal metabolism is seen by each enzyme system, “mixed” is noted in the “Predominant enzyme” column.

[2] abbreviates: pig liver esterase in human plasma protein solution, read-out: Pig Liver Esterase (t1/2 min.) (+) Plasma.
[3] abbreviates: pig liver esterase in phosphate buffer pH 7.4, no plasma, read-out: Pig Liver Esterase (t1/2 min.) (−) Plasma.

`Cc1ccc(Cn2cc(C(C)OC(=O)c3ccc(SC(C)(C)C(=O)O)cc3)nn2)cc1` (centres unmarked) [Compound 81, 2-methyl-2-(4-((1-(1-(4-methylbenzyl)-1H-1,2,3-triazol-4-yl)ethoxy)carbonyl)phenylthio)propanoic acid]: the EC50 is 1 to 50 nM at Gal-4 hPPARα, above 1000 nM at Gal-4 hPPARβ/δ, below 1 nM at Full Length hPPARα and above 1000 nM on Gal-4 hPPARγ.
As for `CCCn1c(COC(=O)c2ccc(OC(C)(C)C(=O)O)c(OC)c2)nn(Cc2ccc(C(C)(C)C)cc2)c1=O` [Compound 180, 2-(4-(((1-(4-tert-butylbenzyl)-5-oxo-4-propyl-4,5-dihydro-1H-1,2,4-triazol-3-yl)methoxy)carbonyl)-2-methoxyphenoxy)-2-methylpropanoic acid], the EC50 is 201 to 999 nM at Gal-4 hPPARα, above 1000 nM at Gal-4 hPPARβ/δ, below 1 nM at Full Length hPPARα and above 1000 nM at Gal-4 hPPARγ.
As to `Cc1ccc(Cn2nncc2COC(=O)c2ccc(SC(C)(C)C(=O)O)cc2)cc1` [Compound 62, 2-methyl-2-(4-(((1-(4-methylbenzyl)-1H-1,2,3-triazol-5-yl)methoxy)carbonyl)phenylthio)propanoic acid], the EC50 on Gal-4 hPPARα is 51 to 200 nM; on Gal-4 hPPARβ/δ it was above 1000 nM; at Full Length hPPARα, 51 to 200 nM; on Gal-4 hPPARγ, above 1000 nM.
In the case of `Cn1nc(-c2ccccc2)cc1COC(=O)c1ccc(OC(C)(C)C(=O)O)cc1` [Compound 2, 2-methyl-2-(4-(((1-methyl-3-phenyl-1H-pyrazol-5-yl)methoxy)carbonyl)phenoxy)propanoic acid], the EC50 is 201 to 999 nM at Gal-4 hPPARα, above 1000 nM on Gal-4 hPPARβ/δ, 1 to 50 nM at Full Length hPPARα and above 1000 nM on Gal-4 hPPARγ.
As to `CCCn1c(C(C)OC(=O)c2ccc(SC(C)(C)C(=O)O)cc2)nn(Cc2ccc(C)cc2)c1=O` (centres unmarked) [Compound 199, 2-methyl-2-(4-((1-(1-(4-methylbenzyl)-5-oxo-4-propyl-4,5-dihydro-1H-1,2,4-triazol-3-yl)ethoxy)carbonyl)phenylthio)propanoic acid], the EC50 on Gal-4 hPPARα is 1 to 50 nM; at Gal-4 hPPARβ/δ, above 1000 nM; at Gal-4 hPPARγ it was above 1000 nM. The half-life at 4.9 µM in the series with pig liver esterase (setting [2]) and with pig liver esterase (setting [3]) was above 2 h in each case. Besides, the “HLMs t1/2 (min)” value in series [1] is on record as “Stable”.
In the case of `COc1ccc(Cn2cc(COC(=O)c3ccc(SC(C)(C)C(=O)O)cc3)nn2)cc1` [Compound 68, 2-(4-(((1-(4-methoxybenzyl)-1H-1,2,3-triazol-4-yl)methoxy)carbonyl)phenylthio)-2-methylpropanoic acid], the EC50 on Gal-4 hPPARα was 51 to 200 nM; on Gal-4 hPPARβ/δ, above 1000 nM; at Full Length hPPARα, 51 to 200 nM; at Gal-4 hPPARγ, above 1000 nM.
For `CCCn1c([C@@H](C)OC(=O)c2ccc(SC(C)(C)C(=O)O)cc2)nn(Cc2ccc(C)cc2)c1=O` [Compound 249, 4-(1-Carboxy-1-methyl-ethylsulfanyl)-benzoic acid (R)-1-[1-(4-methyl-benzyl)-5-oxo-4-propyl-4,5-dihydro-1H-1,2,4-triazol-3-yl]-ethyl ester], the EC50 was 1 to 50 nM at Gal-4 hPPARα, above 1000 nM on Gal-4 hPPARβ/δ and above 1000 nM at Gal-4 hPPARγ. Further, the half-life at 4.9 µM with pig liver esterase (setting [2]) and in the series with pig liver esterase (setting [3]) was above 2 h in each case. The “HLMs t1/2 (min)” value in series [1] is “Stable”.
